The text below walks through data of patent publication EP3222712A1, “ALCOHOL DEHYDROGENASE FROM PICHIA PASTORIS AND USE THEREOF” (priority 2016, dated 2017).

Data set [1] has as its system alcohol dehydrogenase from Pichia pastoris (PPADH). The data set is described as follows: biotransformation by purified PPADH with GDH co-factor regeneration, gas chromatography. It is filed as biochemical. Conditions: 2 hours reaction time.
Data set [2] deals with T1, alcohol dehydrogenase from Pichia pastoris (PPADH) (Komagataella phaffii, UniProt C4R4L0). As to the kind of experiment: photometric assay, oxidation of alcohols by purified PPADH (NADP+, 340 nm). Conditions: for specific activity: purified PPADH, 10 mM substrate, 0.2 mM NADP+, tris HCl pH 9, 25°C; for relative activity: 6.6 U/mg set to 100%. It is filed as biochemical, Pichia pastoris GS 115. The method, then:
In a first step, crude extract containing recombinant alcohol dehydrogenase from Pichia pastoris via cell disruption of E. coli BL21(DE3) overexpressing in vector pET28a-PPADH carrying an N-terminal 6xHis tag. Cells were resuspended in 10 mM tris HCl buffer (pH 7) to yield a 25% cell suspension and were disrupted by sonification under cooling. Three cycles of 2 min of 25% power output followed by 1 min cooling were used. After repeated centrifugation a cell-free crude extract was obtained. Afterwards the PPADH was purified as described in example 3c).
Determination of the enzymatic activity of the purified PPADH can be determined via a oxidation or reduction reaction. For determination of the reduction the following compounds were used: tris HCl buffer (100 mM, pH 7), 0.2 mM NADPH, 10 mM substrate selected from the aldehydes and ketones as given in Table 2 and 10 µl enzyme (purified PPADH). For determination of the oxidation the following compounds were used: tris HCl buffer (100 mM, pH 9), 0.2 mM NADP^+, 10 mM substrate selected from the alcohols as given in Table 3 and 10 µl enzyme (purified PPADH). The reaction was performed in 1 cm-cuvettes. The compounds were mixed in the cuvette used for the experiment, which was placed in the photometer and data recording was started. The enzyme solution was added only immediately before the start of the measurement. The activity of the enzyme was determined by photometric detection of the concentration of NADPH after a certain time interval. Measurement was carried out at a temperature of 25°C, a wavelength of 340 nm and over a time interval of 1 min.

Data set [3] addresses T1, alcohol dehydrogenase from Pichia pastoris (PPADH). As to the kind of experiment: kinetic parameters of purified PPADH by photometry. Format: biochemical, Pichia pastoris GS 115. The method, then: (§1) In order to determine the kinetic parameters of the recombinant PPADH, purified enzyme was manufactured as described in example 4b). Afterwards the described test for reductive activity was used. All parameters such as 100 mM tris HCl buffer (pH 7), 0.2 mM NADPH, and 10 µl enzyme (purified PPADH) were kept constant, except that concentration of substrate and concentration of co-factor were varied. The kinetic parameters were calculated using the software GraphPad Prism5 based on a non-linear ,fitting"-algorithm. Table 4: kinetic parameters of purified PPADH regarding benzaldehyde, racemic CF3-ketone as substrates and the co-factor NADPH determined by photometry

Substrate in data set [4]: CC(=O)CC(O)(c1ccccc1)C(F)(F)F
The data set is described as follows: kinetic parameters of purified PPADH by photometry. Format: biochemical, Pichia pastoris GS 115. The protocol:
as §1

Substrate in data set [5]: O=Cc1ccccc1
The data set is described as follows: kinetic parameters of purified PPADH by photometry. To be noted: other: purified PPADH, tris HCl pH 7, non-linear fitting. Format: biochemical, Pichia pastoris GS 115. The method, then:
as §1

Setting [6] is: CF3-ketone derivatives, alcohol formed related to the reduction of (S)-ketone.
[7] abbreviates: acetophenone derivatives, related to the alcohol formed.
Where [8] appears, read: other: purified PPADH, tris HCl pH 7, non-linear fitting.

Marks after values point to notes of the source that are not given here.

With `COC(C)(CC(C)=O)c1ccccc1` (racemic) [NOD-VI-405], the level of turnover result in data set [1] (CF3-ketone derivatives) is “+++ (+++ =20-55 %)”. This molecule returned a turnover in data set [1] (setting [6]) of 20.3%.

As for `CC(=O)CC(O)(c1ccc(Cl)cc1)C(F)(F)F` (racemic) [Nod362], in data set [1] (CF3-ketone derivatives), the level of turnover result is given as “+++++ (+++++ = 75 - 100 %)” and the turnover entry was “quant”.

On to `CCC(O)CO` (stereo not drawn) [1,2-butanediol], for which the specific activity in data set [2] is below 0.5 U/mg.

`CC(O)CO` (stereo not drawn) [1,2-propanediol] registered a specific activity in data set [2] below 0.5 U/mg.

`CC(O)c1ccc(Cl)cc1` (stereo not drawn) [1-(4-chlorophenyl)ethanol] registered a specific activity in data set [2] below 0.5 U/mg.

On to `C=CC(O)CC` (stereo not drawn) [1-penten-3-ol], for which the specific activity in data set [2] was below 0.5 U/mg.

With `O=C(c1ccccc1Br)C(F)(F)F` [2'-Bromo-2,2,2-trifluoroacetophenone], in data set [1] (acetophenone derivatives), the level of turnover entry is “+ (+=1-5%)”. The molecule further came in with a turnover in data set [1] (setting [7]) below 5%.

On to `COc1ccccc1C(C)=O` [2'-Methoxyacetophenone], for which the level of turnover result in data set [1] (acetophenone derivatives) is given as “+ (+=1-5%)”. Also, the turnover in data set [1] (setting [7]) is recorded as below 5%.

With `CC(=O)c1ccccc1Br` [2'-bromoacetophenone], the level of turnover result in data set [1] (acetophenone derivatives) was “+ (+=1-5%)”. Moreover, in data set [1] (setting [7]), the turnover is listed as below 5%.

As to `O=C(c1ccccc1)C(F)(F)F` [2,2,2-Trifluoroacetophenone], in data set [1] (acetophenone derivatives), the level of turnover result is “+++ (+++=20-55%)”. The turnover in data set [1] (setting [7]) is given as 24.2%.

In data set [2], `CC(O)C(C)O` (stereo not drawn) [2,3-butanediol] gave a specific activity below 0.5 U/mg.

With `O=C(CO)c1ccccc1` [2-Hydroxyacetophenone], in data set [1] (acetophenone derivatives), the level of turnover result is “+ (+=1-5%)”. Moreover, the turnover in data set [1] (setting [7]) is recorded as below 5%.

Regarding `COCC(=O)c1ccccc1` [2-Methoxyacetophenone], the level of turnover result in data set [1] (acetophenone derivatives) is on record as “- (-=0-1%)”. The molecule also gave a turnover in data set [1] (setting [7]) below 1%.

`OC1C=CCCC1` (stereo not drawn) [2-cyclohexen-1-ol] yielded a specific activity in data set [2] below 0.5 U/mg.

In data set [2], `CC(CO)c1ccccc1` (stereo not drawn) [2-phenyl-1-propanol] showed a specific activity below 0.5 U/mg.

As to `O=C(c1ccc(Cl)cc1)C(F)(F)F` [4'-Chloro-2,2,2-trifluoro acetophenone], in data set [1] (acetophenone derivatives), the level of turnover result is recorded as “++ (++=5-20%)”. Further, the turnover in data set [1] (setting [7]) is 12.4%.

For `C[C@@H](O)c1ccccc1` [(R)-(+)-1-phenylethanol], the specific activity in data set [2] was below 0.5 U/mg.

As to `CCCCCC[C@@H](C)O` [(R)-(-)-2-octanol], the specific activity in data set [2] is given as below 0.5 U/mg.

In turn, `C=CCC[C@@H](C)O` [(R)-(-)-5-hexen-2-ol] displayed a specific activity in data set [2] below 0.5 U/mg.

Consider `CC[C@H](N)CO` [(S)-(+)-2-amino-1-butanol], for which, in data set [2], the specific activity was below 0.5 U/mg.

Consider `CC[C@H](C)O` [(S)-(+)-2-butanol], for which the specific activity in data set [2] was below 0.5 U/mg.

For the molecule `NC(=O)C1=CN([C@@H]2O[C@H](COP(=O)(O)OP(=O)(O)OC[C@H]3O[C@@H](n4cnc5c(N)ncnc54)[C@H](OP(=O)(O)O)[C@@H]3O)[C@@H](O)[C@H]2O)C=CC1` [NADPH], in data set [3] (tris HCl pH 7), the Vmax was found to be 94.2 U/mg and the kcat worked out at 19.5 s⁻¹. Also, the Km in data set [3] (tris HCl pH 7, non-linear fitting) is 48.3 µM.

With `CC(=O)CC(O)(c1ccc(F)cc1)C(F)(F)F` (stereo not drawn) [Nod363 F4], in data set [1] (CF3-ketone derivatives), the level of turnover entry is listed as “+++++ (+++++ = 75 - 100 %)” and the turnover result was “quant”.

As to `CC(=O)CC(O)(c1ccc(C)cc1)C(F)(F)F` (stereo not drawn) [Nod364 F3-Enon], in data set [1] (CF3-ketone derivatives), the level of turnover result is “+++++ (+++++ = 75 - 100 %)” and the turnover entry is listed as “quant”.

As to `COc1ccc(C(O)(CC(C)=O)C(F)(F)F)cc1` (stereo not drawn) [Nod365 F6], in data set [1] (CF3-ketone derivatives), the level of turnover entry is on record as “+++++ (+++++ = 75 - 100 %)” and the turnover entry is listed as “quant”.

As for `COc1ccccc1[C@@](O)(CC(C)=O)C(F)(F)F` [Nod-3d], the level of turnover entry in data set [1] (CF3-ketone derivatives) was “+++++ (+++++ = 75 - 100 %)”. Further, the turnover in data set [1] (setting [6]) was found to be 75.8%.

For `CC(=O)c1ccccc1` [acetophenone], the level of turnover result in data set [1] (acetophenone derivatives) is “++ (++=5-20%)”. This molecule also had a turnover in data set [1] (setting [7]) of 7.8%.

In data set [2], `OCc1ccccc1` [benzylalcohol] had a specific activity below 0.5 U/mg.

For the molecule `C[C@@H](CO)c1ccccc1` [compound 15], in data set [2], the relative activity amounted to 16.0% and the specific activity came out at 1.06 U/mg.

Consider `OCCc1ccccc1Br` [compound 16], for which, in data set [2], the relative activity was found to be 29.3% and the specific activity stood at 1.94 U/mg.

In data set [2], `CCCCO` [compound 17] registered a relative activity of 16.7% and a specific activity of 1.11 U/mg.

In data set [2], `CCCC(C)CO` (stereo not drawn) [compound 18] gave a relative activity of 30.9% and a specific activity of 2.04 U/mg.

In data set [2], `CCCC(C)O` (stereo not drawn) [compound 19] displayed a relative activity of 38.3% and a specific activity of 2.53 U/mg.

Turning to `C/C=C/C(C)O` (stereo not drawn) [compound 20], in data set [2], the relative activity is reported as 19.5% and the specific activity was 1.29 U/mg.

In data set [2], `CCCCC(C)O` (stereo not drawn) [compound 22] gave a relative activity of 54.9% and a specific activity of 3.62 U/mg.

Consider `CCCC[C@H](C)O` [compound 23], for which, in data set [2], the relative activity amounted to 100.0% and the specific activity turned out to be 6.61 U/mg.

Take `C=CCC[C@H](C)O` [compound 24]: in data set [2], the relative activity was 57.4% and the specific activity came out at 3.79 U/mg.

In data set [2], `CCCCC[C@H](C)O` [compound 25] returned a relative activity of 31.6% and a specific activity of 2.09 U/mg.

In data set [2], `CCCCCCC(C)O` (stereo not drawn) [compound 26] showed a relative activity of 8.7% and a specific activity of 0.57 U/mg.

For the molecule `CC(C)=CCCC(C)=CCO` [compound 27], in data set [2], the relative activity is given as 32.7% and the specific activity came to 2.16 U/mg.

In data set [2], `CC(C)=CCCC(C)=CCO` [compound 28] had a relative activity of 18.0% and a specific activity of 1.19 U/mg.

In the case of `OC1CCCCC1` [cyclohexanol], the specific activity in data set [2] is on record as below 0.5 U/mg.

Regarding `C=CC(O)CCCCC` (stereo not drawn) [octen-3-ol], the specific activity in data set [2] is listed as below 0.5 U/mg.

B1: alcohol dehydrogenase from Pichia pastoris (PPADH) (Komagataella phaffii GS115) (protein)
chain: MVSKVLLTGASGYIAQHITNELLSHGFKVIGTVRRQEQADQLHKQFSEESSVLQKDPSLLTYVLVPDIGASDAFDEVLKSTPDITYVLHTASPFIFNDDRALEDVYLKPAVEGTRNILSAIKKFANDSVKNVVVTSSFAAILNADKFEDKSFIHTEKVWNNNTWDQTKSGDRGVAYIVSKKEAEKAAWDFVEKEKPNFKLTTVNPPYVFGPQKFDASAKKESLNTSAEIVGSLLHTKYPSDDKLFDDPLNLSVDVRDVALYHVLPLLNADLASRRLLVVQSKFSAQRILNIINENFPELKGKIAVGKPEETARVEAIKGPEYNNSVTVGLTGVDPIPLEKTVVDSVKQILRANK
As to B1, the Michaelis-Menten constant (Km) in data set [4] (other: corrected for 50% (S)-enantiomer in the racemic substrate, pH 7.0) worked out at 899 µM. In data set [4] (setting [8]), the Km is reported as 1797.0* µM, the Vmax is given as 46.3 U/mg, the turnover number (kcat) worked out at 6.4 s⁻¹ and the catalytic efficiency (kcat/Km) is listed as 3.6* s^-1mM^-1. Besides, in data set [5], the Km is 3034.0 µM, the Vmax was 98.5 U/mg, the catalytic constant (kcat) worked out at 25.1 s⁻¹ and the catalytic efficiency (kcat/Km) worked out at 8300 M⁻¹ s⁻¹.
